Laboratory results as given in patent publication US7960508B2, “Peptide having cytotoxicity inhibitory activity and method of screening these peptide having cytotoxicity inhibitory activity” (Juridical Foundation The Chemo-Sero-Therapeutic Research …, priority 2001, dated 2011).
Non-standard residues stand in square brackets, D forms with d. Residues, ends and D or L forms follow the SMILES beside them. No end group written: not given here. Sec = N[C@@H](C[SeH])C(=O)O

Columns and labels:
Dami cells [1] = test: Screening of efficacious peptides: cytotoxicity-inhibitory activity (Example 3); assay type: cell-based; conditions: for Activity/1 mM Sec: cytotoxicity-inhibitory activity per 1 mM selenocysteine
Method: (§1) The cells were washed twice with 50% PBS/SA/0.03% HSA (manufactured by SIGMA) and suspended in the same medium at 3×10^4 cells/ml.
(§2) For assessment, it was examined to what folds of dilution of tested samples the cells could survive in view of the fact that on Day 4 the cells in wells without the activity were put to death whereas the cells in wells with the activity survived.
Cytotoxicity-inhibitory activity was determined for each of the peptides obtained above as described in Reference Example 1 and in accordance with Reference Example 2. As a result, selenocysteine-containing peptides, Peptide 3 through Peptide 16, were confirmed to have the cytotoxicity-inhibitory activity.

Dami cells [2] = test: Cytotoxicity induced by fatty acid and inhibitory activity thereto (Reference Example 2); conditions: for fatty acid concentration inducing cytotoxicity: human
Method: To 1 ml Dami cells (1×10^6 cells/dish/3 ml), which can be subcultured in serum free medium SFO3 (manufactured by Sanko Jun-yaku K.K.) containing 0.05 μM 2ME and 0.1% BSA, was added 2 ml 1:2:2 mixed medium (SA medium) of RPMI 1640/D-MEM/F-12. The cells were cultured for three days and recovered for assay. The cells were washed twice with SA/0.05% fatty acid free BSA (manufactured by Wako Jun-yaku K.K.) and suspended at 3×10^4 cells/ml in the same medium containing 2 to 16 μM arachidonic acid, linoleic acid or linolenic acid. The cell suspension was added to a 96-well plate in each 198 μl for wells for sample addition or in each 100 μl for wells for serial dilution.
To the wells for sample addition was added each 2 μl of 100 μM assay sample and, after stirring, a serial dilution was made with the wells containing 100 μl cell suspension. The plate was incubated at 37° C. in CO2 incubator for 4 to 5 days.

Dami cells [3] = test: Assessment system for activity to inhibit cytotoxicity induced by addition of albumin (Reference Example 1); assay type: cell-based
Method: As one of preferable embodiments, a culture system of Dami cells, human megakaryoblasts, with serum free culture medium supplemented with albumin was used for screening. […] A diluted sample of active fractions was added to this culture system so that the cytotoxicity-inhibitory activity could be assessed.
as §1, §2

Dami cells [4] = test: Minimum concentration for cytotoxic effect / effective minimum concentration (Example 2); assay type: cell-based
Method: Using Dami cells (described in Greenberg S. M. et al., Blood, vol. 72, p. 1968-1977 (1988)) for use in assay system for the cytotoxicity-inhibitory activity, the cells were washed twice with assay medium (50% PBS/SA/0.03% HSA (manufactured by SIGMA) or SA/0.05% BSA free from fatty acid (WAKO)/4 μM long-chain polyvalent fatty acid (e.g. arachidonic acid, linoleic acid or linolenic acid)) and suspended in the same medium at 3×10^4 cells/ml.

[5] = system: intracellular GPX (glutathione peroxidase) activity in Dami cells; test: Increase in intracellular GPX (glutathione peroxidase) activity (Example 5); assay type: cell-based, human
Method: The resulting cells were suspended in SA/0.01% BSA at 5×10^5 cells/ml. To 1 ml of this cell suspension were added samples at a fixed concentration so as to compare a concentration that was effective for increase in GPX activity in the samples.
The samples included a selenoprotein P fragment, a synthetic peptide, selenocystine, selenomethionine, Ebselen and sodium selenite. The effect was compared among these samples. […] See FIG. 4 in which the axis of abscissas indicates a percent GPX activity induced by various samples with the GPX activity induced by addition of 10 nM selenoprotein P fragment being 100% while culture of Dami cells.

[6] = 1 nM, 10 nM selenoprotein P fragment being 100%

Glu Asn Leu Pro Ser Leu Ser Ser Xaa Gln Gly Leu Arg (ENLPSLSS[Sec]QGLR; listed as Human plasma) [Peptide 9]
Activity/1 mM Sec (Dami cells [1]): 24,000

CCCCC/C=C\C/C=C\C/C=C\C/C=C\CCCCCC(=O)O [adrenic acid]
induction of cytotoxicity by fatty acid (Dami cells [2]; 10 μM, serum free culture, absence of selenoprotein P): induced cytotoxicity

vitamin E
effective concentration inhibiting cytotoxicity (Dami cells [2]; in the presence of 4 μM linoleic acid): about 100 nM

CCCCC/C=C\C/C=C\CCCCCCCC(=O)O [linoleic acid]
fatty acid concentration inducing cytotoxicity (Dami cells [2]): ≥ 4 µM

Arg Ser Xaa Cys Cys His Cys Arg His Leu Ile Phe Glu Lys (RS[Sec]CCHCRHLIFEK; cysteine pairing not given here; listed as Human plasma) [Peptide 3]
Activity/1 mM Sec (Dami cells [1]): 95,000

Lys Arg Cys Ile Asn Gln Leu Leu Cys Lys Leu Pro Thr Asp Ser Glu Leu Ala Pro Arg Ser Xaa Cys Cys His Cys Arg His Leu Ile Phe Glu Lys (KRCINQLLCKLPTDSELAPRS[Sec]CCHCRHLIFEK; cysteine pairing not given here; listed as Human plasma) [SEQ ID NO: 3, peptide fragment purified under reduced condition from selenoprotein P fragment]
cytotoxicity-inhibitory activity (Dami cells [3]; result in words, assay not specified): had the cytotoxicity-inhibitory activity

O=c1c2ccccc2[se]n1-c1ccccc1 [Ebselen]
toxicity upon addition to cell culture (Dami cells [4]): exhibited a strong toxicity

Ala Glu Glu Asn Ile Thr Glu Ser Ser Gln Xaa Arg (AEENITESSQ[Sec]R; listed as Human plasma) [Peptide 10]
Activity/1 mM Sec (Dami cells [1]): 6,000

O=[Se](O)O [sodium selenite]
concentration at which toxicity was observed (Dami cells [4]; on the basis of selenium concentration, 4 to 5 days culture): around 500 nM | increase in intracellular GPX activity [5, 6]: around 50%

Arg Ser Xaa Ser (RS[Sec]S; listed as Human plasma) [Peptide 7]
Activity/1 mM Sec (Dami cells [1]): 95,000

Leu Ile Pro Thr Glu Ala Ser Ala Ser Xaa Arg (LIPTEASAS[Sec]R; listed as Human plasma) [Peptide 11]
Activity/1 mM Sec (Dami cells [1]): 28,000

N[C@@H](C[Se][Se]C[C@H](N)C(=O)O)C(=O)O [selenocystine]
toxicity upon addition to cell culture (Dami cells [4]): fairly strong toxicity | increase in intracellular GPX activity [5, 6]: around 50%

Arg Ser Xaa Ser Ser His Cys Arg His Leu Ile Phe Glu Lys (RS[Sec]SSHCRHLIFEK; listed as Human plasma) [Peptide 5]
Activity/1 mM Sec (Dami cells [1]): 16,000

C[Se]CC[C@H](N)C(=O)O [selenomethionine]
effective minimum concentration of selenium to inhibit 80% or more of cytotoxicity (Dami cells [4]): around 1 μM | increase in intracellular GPX activity ([5]; 10 nM): increase in the activity could scarcely be observed

KRCINQLLCKLPTDSELAPRS (cysteine pairing not given here) [Peptide 1]
Activity/1 mM Sec (Dami cells [1]): 0

Arg Ser Xaa Ser Cys His Cys Arg His Leu Ile Phe Glu Lys (RS[Sec]SCHCRHLIFEK; cysteine pairing not given here; listed as Human plasma) [Peptide 4]
Activity/1 mM Sec (Dami cells [1]): 24,000

Thr Gly Ser Ala Ile Thr Xaa Gln Ser Lys (TGSAIT[Sec]QSK; listed as Human plasma) [Peptide 8]
Activity/1 mM Sec (Dami cells [1]): 79,000

CC[C@H](C)[C@H](NC(=O)[C@H](CC(C)C)NC(=O)[C@H](Cc1c[nH]cn1)NC(=O)[C@H](CCCNC(=N)N)NC(=O)[C@H](CO)NC(=O)[C@H](Cc1c[nH]cn1)NC(=O)[C@H](CO)NC(=O)[C@H](CO)NC(=O)[C@H](C[SeH])NC(=O)[C@H](CO)NC(=O)[C@@H](N)CCCNC(=N)N)C(=O)N[C@@H](Cc1ccccc1)C(=O)N[C@@H](CCC(=O)O)C(=O)N[C@@H](CCCCN)C(=O)O [Peptide 6] (H-RS[Sec]SSHSRHLIFEK-OH)
cytotoxicity-inhibitory activity (Dami cells [1]; result in words): could inhibit cytotoxicity most effectively at the lowest concentration

Leu Pro Pro Ala Ala Xaa Gln Ile Ser Gln Gln (LPPAA[Sec]QISQQ; listed as Human plasma) [Peptide 16]
Activity/1 mM Sec (Dami cells [1]): 24,000

Xaa Pro Ser Asn ([Sec]PSN; listed as Human plasma) [Peptide 13]
Activity/1 mM Sec (Dami cells [1]): 24,000

RSSCCHCRHLIFEK (cysteine pairing not given here) [Peptide 2]
Activity/1 mM Sec (Dami cells [1]): 0

CCCCC/C=C\C/C=C\C/C=C\C/C=C\CCCC(=O)O [arachidonic acid]
fatty acid concentration inducing cytotoxicity (Dami cells [2]): ≥ 4 µM

Lys Glu Phe Ile Leu His Arg Ser His Ser Ser Xaa Ser Arg (KEFILHRSHSS[Sec]SR; listed as Human plasma) [Peptide 14]
Activity/1 mM Sec (Dami cells [1]): 95,000

Lys Asn Gln Ala Lys Lys Xaa Glu (KNQAKK[Sec]E; listed as Human plasma) [Peptide 12]
Activity/1 mM Sec (Dami cells [1]): 24,000

B1: full-length selenoprotein P: selenoprotein P as an intact molecule, a protein from blood components (protein, UniProt P49908 1-381, looked up)
chain: MWRSLGLALALCLLPSGGTESQDQSSLCKQPPAWSIRDQDPMLNSNGSVTVVALLQASUYLCILQASKLEDLRVKLKKEGYSNISYIVVNHQGISSRLKYTHLKNKVSEHIPVYQQEENQTDVWTLLNGSKDDFLIYDRCGRLVYHLGLPFSFLTFPYVEEAIKIAYCEKKCGNCSLTTLKDEDFCKRVSLATVDKTVETPSPHYHHEHHHNHGHQHLGSSELSENQQPGAPNAPTHPAPPGLHHHHKHKGQHRQGHPENRDMPASEDLQDLQKKLCRKRCINQLLCKLPTDSELAPRSUCCHCRHLIFEKTGSAITUQCKENLPSLCSUQGLRAEENITESCQURLPPAAUQISQQLIPTEASASURUKNQAKKUEUPSN
modifications: full-length
notes: selenoprotein P as an intact molecule, a protein from blood components
toxicity upon addition to cell culture (Dami cells [4]): no strong toxicity

B2: SEQ ID NO: 2: selenoprotein P fragment with the amino acid sequence from 260th Lys to 362nd Asn, Xaa represents selenocysteine (protein, listed as Human plasma)
chain: KRCINQLLCKLPTDSELAPRS[Sec]CCHCRHLIFEKTGSAIT[Sec]QCKENLPSLCS[Sec]QGLRAEENITESCQ[Sec]RLPPAA[Sec]QISQQLIPTEASAS[Sec]R[Sec]KNQAKK[Sec]E[Sec]PSN
cytotoxicity-inhibitory activity (Dami cells [3]): having the cytotoxicity-inhibitory activity
